Laboratory results reported in patent US20050208496A1, “Methods of testing for bronchial asthma or chronic obstructive pulmonary disease” (Genox Research, Inc., priority 2002, published 2005).

Tested on: mouse counterpart genes
Assay: Mouse GeneChip (MG-U74A to MG-U74C) analysis of lung and trachea of the OVA antigen-exposed bronchial hypersensitivity model, S-Sal group versus S-OVA group
Assay type: in vivo
[1] = S-Sal group versus S-OVA group, MG-U74 chip A, 1st
[2] = S-Sal group versus S-OVA group, MG-U74 chip A, 2nd
[3] = S-Sal group versus S-OVA group, MG-U74 chip A, 3rd
[4] = S-Sal group versus S-OVA group, MG-U74 chip B, 1st
[5] = S-Sal group versus S-OVA group, MG-U74 chip B, 2nd
[6] = S-Sal group versus S-OVA group, MG-U74 chip B, 3rd
[7] = S-Sal group vs S-OVA group, 1st, chip A, P/A call A
[8] = S-Sal group vs S-OVA group, 1st, chip A, P/A call P
[9] = S-Sal group vs S-OVA group, 1st, chip B, P/A call A
[10] = S-Sal group vs S-OVA group, 1st, chip B, P/A call P
[11] = S-Sal group vs S-OVA group, 1st, chip C, P/A call P
[12] = S-Sal group vs S-OVA group, 2nd, chip A, P/A call A
[13] = S-Sal group vs S-OVA group, 2nd, chip A, P/A call P
[14] = S-Sal group vs S-OVA group, 2nd, chip B, P/A call A
[15] = S-Sal group vs S-OVA group, 2nd, chip B, P/A call P
[16] = S-Sal group vs S-OVA group, 2nd, chip C, P/A call P
[17] = S-Sal group vs S-OVA group, 3rd, chip A, P/A call A

ovalbumin [OVA antigen, ovalbumin antigen used for sensitization and inhalation to induce bronchial hypersensitivity in mice]
Fold Change 1st, contactin 1 (mouse Probe ID 92936_at) [1]: 1.3
Fold Change 1st, lectin, galactose binding, soluble 1 (mouse Probe ID 99669_at) [1]: 1.6
Fold Change 1st, peptidyl arginine deiminase, type I (mouse Probe ID 95343_at) [1]: 1.3
Fold Change 1st, peptidyl arginine deiminase, type III (mouse Probe ID 103803_at) [1]: 2.2
Fold Change 2nd, contactin 1 (mouse Probe ID 92936_at) [2]: 1.9
Fold Change 2nd, lectin, galactose binding, soluble 1 (mouse Probe ID 99669_at) [2]: 2
Fold Change 2nd, peptidyl arginine deiminase, type I (mouse Probe ID 95343_at) [2]: 0.83
Fold Change 2nd, peptidyl arginine deiminase, type III (mouse Probe ID 103803_at) [2]: 1.4
Fold Change 3rd, contactin 1 (mouse Probe ID 92936_at) [3]: 0.44
Fold Change 3rd, lectin, galactose binding, soluble 1 (mouse Probe ID 99669_at) [3]: 1.3
Fold Change 3rd, peptidyl arginine deiminase, type I (mouse Probe ID 95343_at) [3]: 0.67
Fold Change 3rd, peptidyl arginine deiminase, type III (mouse Probe ID 103803_at) [3]: 1.5
Fold Change 1st, aquaporin 5 (mouse Probe ID 113916_at) [4]: 0.77
Fold Change 1st, contactin 1 (mouse Probe ID 105826_at) [4]: 0.83
Fold Change 1st, contactin 1 (mouse Probe ID 164059_f_at) [4]: 1.7
Fold Change 2nd, aquaporin 5 (mouse Probe ID 113916_at) [5]: 0.83
Fold Change 2nd, contactin 1 (mouse Probe ID 105826_at) [5]: 1
Fold Change 2nd, contactin 1 (mouse Probe ID 164059_f_at) [5]: 0.91
Fold Change 3rd, aquaporin 5 (mouse Probe ID 113916_at) [6]: 0.59
Fold Change 3rd, contactin 1 (mouse Probe ID 105826_at) [6]: 1.1
Fold Change 3rd, contactin 1 (mouse Probe ID 164059_f_at) [6]: 0.77
Fold Change 1st, contactin 1 (mouse Probe ID 170177_r_at) (S-Sal group versus S-OVA group, MG-U74 chip C, 1st): 0.67
Fold Change 2nd, contactin 1 (mouse Probe ID 170177_r_at) (S-Sal group versus S-OVA group, MG-U74 chip C, 2nd): 1.1
Fold Change 3rd, contactin 1 (mouse Probe ID 170177_r_at) (S-Sal group versus S-OVA group, MG-U74 chip C, 3rd): 1.5
Fold Change, AXL receptor tyrosine kinase (mouse probe 99136_at) [7]: 0.357
Fold Change, claudin 4 (mouse probe 101410_at) [7]: 1.8
Fold Change, histocompatibility-2 complex class I-like sequence (mouse probe 101433_at) [7]: 0.526
Fold Change, interferon gamma inducible protein 30 (mouse probe 97444_at) [7]: 1.3
Fold Change, interleukin 1 receptor-like 1 (mouse probe 98500_at) [7]: 1.3
Fold Change, low density lipoprotein receptor-related protein associated protein 1 (mouse probe 161988_f_at) [7]: 1.3
Fold Change, matrix metalloproteinase 7 (mouse probe 92917_at) [7]: 2.3
Fold Change, met proto-oncogene (mouse probe 100309_at) [7]: 0.667
Fold Change, phosphotidylinositol transfer protein, beta (mouse probe 102697_at) [7]: 0.303
Fold Change, A kinase anchor protein 2 (mouse probe 101435_at) [8]: 0.833
Fold Change, DNA segment. Chr 16. ERATO Doi 269, expressed (mouse probe 97822_at) [8]: 1
Fold Change, DNA segment. Chr 16. ERATO Doi 269, expressed (mouse probe 97823_g_at) [8]: 1.1
Fold Change, arachidonate 15-lipoxygenase (mouse probe 98758_at) [8]: 1.1
Fold Change, cholesterol 25-hydroxylase (mouse probe 104509_at) [8]: 1.1
Fold Change, claudin 5 (mouse probe 104516_at) [8]: 1.1
Fold Change, decay accelerating factor 1 (mouse probe 103617_at) [8]: 1.2
Fold Change, interferon-stimulated protein (20 kDa) (mouse probe 103432_at) [8]: 1
Fold Change, low density lipoprotein receptor-related protein associated protein 1 (mouse probe 100086_at) [8]: 1.1
Fold Change, membrane-associated protein 17 (mouse probe 96935_at) [8]: 1
Fold Change, phosphotidylinositol transfer protein, beta (mouse probe 102696_s_at) (S-Sal group vs S-OVA group, 1st, chip A, P/A call P, counterpart of human probe 353_at): 1.3
Fold Change, phosphotidylinositol transfer protein, beta (mouse probe 102696_s_at) (S-Sal group vs S-OVA group, 1st, chip A, P/A call P, counterpart of human probe 35017_f_at): 1.3
Fold Change, histocompatibility 2, Q region locus 7 (mouse probe 98438_f_at) (S-Sal group vs S-OVA group, 1st, chip A, P/A call P, counterpart of human probe 37420_i_at): 1.3
Fold Change, histocompatibility 2, Q region locus 7 (mouse probe 98438_f_at) (S-Sal group vs S-OVA group, 1st, chip A, P/A call P, counterpart of human probe 37421_f_at): 1.3
Fold Change, A kinase (PRKA) anchor protein 10 (mouse probe 163162_at) [9]: 0.5
Fold Change, ESTs Putative Ortholog of ISG-54K gene (mouse probe 164273_at) [9]: 1
Fold Change, ESTs, Highly similar to AF116721 8 PRO0907 [H. sapiens] (mouse probe 114151_at) [9]: 1
Fold Change, neurotrophic tyrosine kinase, receptor type 1 (mouse probe 110116_at) [9]: 2.5
Fold Change, secreted end transmembrane 1 (mouse probe 115133_at) [9]: 0.435
Fold Change, MP and activin membrane-bound inhibitor, homolog (Xanopus laevis) (mouse probe 162531_at) [10]: 1
Fold Change, decay accelerating factor 1 (mouse probe 107626_at) [10]: 1.3
Fold Change, viral hemorrhagic septicemia virus(VHSV) induced gene 1 (mouse probe 109385_at) [10]: 0.769
Fold Change, cholesterol 25-hydroxylase (mouse probe 133666_at) (S-Sal group vs S-OVA group, 1st, chip C, P/A call A): 0.588
Fold Change, deleted in bladder cancer chromosome region candidate 1 (human) Putative Ortholog (mouse probe 166806_at) [11]: 1.4
Fold Change, interferon-induced protein with tetratricopeptide repeats 1 (mouse probe 168299_f_at) [11]: 1.3
Fold Change, interleukin 1 receptor-like 1 (mouse probe 98501_at) (S-Sal group vs S-OVA group, 2nd, chip A): 1.8
Fold Change, AXL receptor tyrosine kinase (mouse probe 99136_at) [12]: 0.476
Fold Change, a disintegrin and metalloprotease domain 8 (mouse probe 103024_at) [12]: 3.4
Fold Change, claudin 4 (mouse probe 101410_at) [12]: 3.4
Fold Change, histocompatibility-2 complex class I-like sequence (mouse probe 101433_at) [12]: 0.625
Fold Change, interferon gamma inducible protein 30 (mouse probe 97444_at) [12]: 1.9
Fold Change, matrix metalloproteinase 7 (mouse probe 92917_at) [12]: 1.6
Fold Change, met proto-oncogene (mouse probe 100309_at) [12]: 1
Fold Change, phosphotidylinositol transfer protein, beta (mouse probe 102697_at) [12]: 0.333
Fold Change, matrix metalloproteinase 7 (mouse probe 162318_r_at) (S-Sal group vs S-OVA group, 2nd, chip A, P/A call M): 1.7
Fold Change, A kinase anchor protein 2 (mouse probe 101435_at) [13]: 0.833
Fold Change, DNA segment. Chr 16. ERATO Doi 269, expressed (mouse probe 97821_at) [13]: 1
Fold Change, DNA segment. Chr 16. ERATO Doi 269, expressed (mouse probe 97823_g_at) [13]: 1.1
Fold Change, arachidonate 15-lipoxygenase (mouse probe 98758_at) [13]: 3.5
Fold Change, cholesterol 25-hydroxylase (mouse probe 104509_at) [13]: 3.1
Fold Change, claudin 5 (mouse probe 104516_at) [13]: 1.2
Fold Change, decay accelerating factor 1 (mouse probe 103617_at) [13]: 1.5
Fold Change, interferon-stimulated protein (20 kDa) (mouse probe 103432_at) [13]: 1.2
Fold Change, interleukin 1 receptor-like 1 (mouse probe 98500_at) [13]: 3.4
Fold Change, polycystic kidney disease 2 (mouse probe 100951_at) [13]: 0.667
Fold Change, phosphotidylinositol transfer protein, beta (mouse probe 102696_s_at) (S-Sal group vs S-OVA group, 2nd, chip A, P/A call P, counterpart of human probe 353_at): 1
Fold Change, phosphotidylinositol transfer protein, beta (mouse probe 102696_s_at) (S-Sal group vs S-OVA group, 2nd, chip A, P/A call P, counterpart of human probe 35017_f_at): 1
Fold Change, histocompatibility 2, Q region locus 7 (mouse probe 98438_f_at) (S-Sal group vs S-OVA group, 2nd, chip A, P/A call P, counterpart of human probe 37420_i_at): 1.4
Fold Change, histocompatibility 2, Q region locus 7 (mouse probe 98438_f_at) (S-Sal group vs S-OVA group, 2nd, chip A, P/A call P, counterpart of human probe 37421_f_at): 1.4
Fold Change, ESTs Putative Ortholog of ISG-54K gene (mouse probe 164273_at) [14]: 1
Fold Change, ESTs, Highly similar to AF116721 8 PRO0907 [H. sapiens] (mouse probe 114151_at) [14]: 1.2
Fold Change, decay accelerating factor 1 (mouse probe 164905_r_at) [14]: 1
Fold Change, neurotrophic tyrosine kinase, receptor type 1 (mouse probe 110116_at) [14]: 1.2
Fold Change, secreted end transmembrane 1 (mouse probe 115133_at) [14]: 0.5
Fold Change, decay accelerating factor 1 (mouse probe 107626_at) [15]: 1.6
Fold Change, interferon gamma inducible protein 30 (mouse probe 164423_at) [15]: 4
Fold Change, viral hemorrhagic septicemia virus(VHSV) induced gene 1 (mouse probe 109385_at) [15]: 1.7
Fold Change, deleted in bladder cancer chromosome region candidate 1 (human) Putative Ortholog (mouse probe 166806_at) [16]: 1.5
Fold Change, interferon-induced protein with tetratricopeptide repeats 1 (mouse probe 168299_f_at) [16]: 1.1
Fold Change, interleukin 1 receptor-like 1 (mouse probe 98501_at) (S-Sal group vs S-OVA group, 3rd, chip A): 1
Fold Change, AXL receptor tyrosine kinase (mouse probe 99136_at) [17]: 0.25
Fold Change, a disintegrin and metalloprotease domain 28 (mouse probe 101723_r_at) [17]: 1.8
Fold Change, histocompatibility-2 complex class I-like sequence (mouse probe 101433_at) [17]: 0.833
